Consider three molecules from patent US9283257B2, “Compositions comprising solanum tuberosum for lowering cytosolic NADH level to mimic calorie restriction” (Nox Technologies, Inc., priority 2009, dated 2016).

Like-named read-outs stand apart in the source and are kept apart here.

The assay deals with NADH levels in yeast. In words: yeast NADH autofluorescence assay. It is filed as cell-based, Saccharomyces cerevisiae. The source says:
Reduced forms of NAD(P)H show fluorescence with peaks of excitation and emission in the regions of 340 and 450 nm, respectively, that are used to monitor changes in cytosolic NAD(P)H levels. Because oxidized forms of these pyridine nucleotides have minimal fluorescence at this wavelength, a specific strain of Saccharomyces cerevisiae is used as the primary indicator and the assay is set up in a […] microtiter plate format. Fluorescence measurements are taken with an automated plate reader after 2 h of incubation in the presence of at least three log dilutions of the candidate calorie restriction mimic under investigation.
A 10 mL culture of S. cerevisiae (wild type-BY4741, available from American Type Culture Collection, Manassas, Va., ATCC Number 201388) Genotype/ORF/Gene MATa his3delta1 leu2delta0 met15delta0 ura3delta0. The yeast cells are grown overnight in Yeast Extract Peptone Dextrose (YEPD) liquid medium at 30 C with shaking. OD600 of the culture should be between 0.800 and 1.000 prior to assay usage. To remove unwanted autofluorescence, the medium components are removed by the following process.
Aliquots of the yeast culture are transferred to individual 1 mL micro-centrifuge tubes, and the yeast are pelleted in a bench-top centrifuge by spinning at 1000 RPM for 10 min. Excessive centrifugation speeds (over 1000 rpm) are not used because they could damage the yeast; and live yeast are required for the assay. The medium is decanted, and the yeast are resuspended in an equal volume of 1× phosphate buffered saline (137 mM NaCl, 2.7 mM KCl, 10 mM Na2HPO4, 1.76 mM KH2PO4, pH 7.4) and 7.5 mM glucose (PBSG). […] This preparation of yeast is used in the subsequent auto-fluorescence measurements at an optical density (bulk turbidity) at 600 nm between 0.8 and 1.0.
For fluorescence reading samples are added to a black 96 well cell culture plate. […] A single well of each compound or preparation 5 μL+100 μL of 1×PBSG should be added to account for the fluorescence due to additive.
Experiments are conducted using a Fluoroskan II (Titer-Tek) fluorescent plate reader, which is controlled by Genesis software v 2.0 and used in accordance with the manufacturer' instructions. […] These parameters include a) type—whether the measurement is a single measurement or series of measurement over a given time (kinetic), b) excitation and emission wavelengths (for NADH autofluorescence the excitation wavelength is 340 nm and the emission wavelength is 450 nm.) c) interval at which measurements should be taken (every 20 seconds is sufficient) d) duration of each reading which is set at 5 sec per well, and e) the duration of the measurement which is set to 1 hr. […]

For `CC1(C)CCC2=C(O1)c1ccccc1C(=O)C2=O` [β-Lapachrone], the EC50 (yeast system; read-out: Concentration of known stimulators of NADH oxidation to increase NADH consumption by 50% in the yeast system) worked out at 40 µM.

In the case of `O=CC[C@@H](O)[C@H](O)[C@H](O)CO` [2-Deoxyglucose, 2-deoxy-D-glucose], the EC50 (Saccharomyces cerevisiae; read-out: Concentration of known stimulators of NADH oxidation to increase NADH consumption by 50% in the yeast system) was 2000 µM. The “cytosolic NADH levels” value (glucose of the yeast culture medium replaced with 2DG) is on record as “reduced”.

With `O=C(O)CC(=O)C(=O)O` [Oxaloacetic acid], the EC50 (Saccharomyces cerevisiae, read-out: Concentration of known stimulators of NADH oxidation to increase NADH consumption by 50% in the yeast system) turned out to be 20 µM.
